According to patent US12024490B2, “Polymeric metal chelating compositions and methods of preparing same for controlling growth and activities of living cells and organisms for therapeutic use in treating diseases in animals, fish or humans” (CHELATION PARTNERS INCORPORATED, priority 2016, dated 2024):
In brackets after ≈: the same amount, converted by molar mass.

Test system: Staphylococcus aureus
Experiment: Growth inhibition (MIC) in RPMI 1640, Staphylococcus aureus
Format: cell-based
Conditions: method of Example 6, read-out: MIC for S. aureus
Description: Chelating compositions were assessed for their biological activity in vitro by determination of their growth inhibitory activity for Staphylococcus aureus (strain 038, a clinical isolate from a corneal infection obtained from Dr. Mark Wilcox, University New South Wales, Australia or strain ATCC 43300, a prototypical clinical isolate and reference strain obtained from the American Type Culture Collection) and Candida albicans (SC5314, a prototypical clinical isolate and reference strain obtained from the American Type Culture Collection or strain 3969 a clinical isolate obtained from the Queen Elizabeth II hospital, Halifax, Canada). The microorganisms were grown in RPMI 1640 culture medium and tested in fresh aliquots of RPMI 1640 medium or in medium that had been partially deferrated by the method of Holbein and Mira (Holbein B. E, Mira de Orduña R. 2010, FEMS Microbiol Lett. 307(1):19-24, herein incorporated by reference) to allow testing at low Fe levels or with iron re-added at known concentrations to this deferrated medium. Growth at 30° C. was measured by optical density when the test samples were incubated in tubes or visually when growth was tested in microtitre dish wells. […]

## C=C(C)C(=O)NCCn1ccc(=O)c(O)c1C [MAHMP, 3-hydroxy-1-(β-methacrylamidoethyl)-2-methyl-4(1H)-pyridinone]
  MIC: 125 µg/mL (≈ 529 µM)
